Experimental data taken from US20170224833A1, “SELF-ASSEMBLING MOLECULES THAT ACCUMULATE IN ACIDIC TUMOR MICROENVIRONMENTS” (OHIO STATE INNOVATION FOUNDATION, priority 2014, published 2017).
Residues, ends and D or L forms follow the SMILES beside them. *: point of attachment. Palmitoyl = CCCCCCCCCCCCCCCC(=O)*

Tests used:
[1] = pH titration of peptide amphiphiles (pKa); format: physicochemical; settings: 10 μM
Protocol: The titration measurements were conducted on 10 μM peptide amphiphile solutions prepared in 150 mM NaCl and 2.2 mM CaCl2 using milli-Q water. The solution was heated at 80° C. for 30 minutes followed by slow cooling at room temperature. The pH of the solution was then adjusted to 4 using HCl. Finally, an Accumet XL15 pH meter (Fisher Scientific) coupled with an Orion Ross Ultra semi-micro electrode (8103BNUWP, Thermo Scientific) was used to track changes in pH of the solution as NaOH solution was added in small increments. pKa values were obtained from the second inflection points of the first derivative plots of the titration data. The first transition corresponds to neutralization of excess HCl. The calculated pKas reflect the average pKa for all four glutamic acids.

[2] = MRI r1 relaxivity measurement, 1.5 Tesla; format: physicochemical; settings: 500 μM, 1.5 T
Protocol: An MR relaxometry phantom was built by fixing 5 mm NMR sample tubes containing PA samples at a concentration of 500 μM and pH values 4 and 10 in a 600 ml beaker filled with deionized water. The samples also contained 150 mM NaCl and 2.2 mM CaCl2. The phantom was scanned on a 1.5 Tesla Signa Excite MRI scanner using an 8-channel phased-array head coil (GE Healthcare, Milwaukee, Wis., USA). R relaxometry data were acquired using an Inversion Recovery Fast Spin-Echo (IR-FSE) sequence with the following parameters: inversion time TI=50/100/200/400/600/800/1200/1600/3200 ms; repetition time TR=8000 ms; echo time TE=11 ms; echo train length=10; 90° flip angle; 100×100 mm^2 field-of-view (FOV); 0.5 mm in-plane resolution; 2 mm slice thickness; single coronal slice placed at the center of the phantom. Sample longitudinal relaxation rates (R1) were calculated by fitting the MR signal intensities observed at different TIs (S(TI)) to a three parameter model [Lu et al., MRM 2004]:
S(TI)=|S0×(1−C×exp(−TI×R1))|
Where S0 is the equilibrium signal, C is a constant accounting for imperfect inversion of magnetization. The r1 relaxivity was calculated as the slope in the linear relationship between sample concentrations and their R1 relaxation rates.

Molecule | glutamic acids in the deprotonated form at the transition [1] [%] | relaxivity of water protons ([2]; pH 4 (nanofibers)) [mM⁻¹ s⁻¹] | relaxivity of water protons ([2]; pH 10 (spherical micelles)) [mM⁻¹ s⁻¹]
CCCCCCCCCCCCCCCC(=O)N[C@H](C(=O)N[C@@H](C)C(=O)N[C@@H](C)C(=O)N[C@@H](C)C(=O)N[C@@H](CCC(=O)O)C(=O)N[C@@H](CCC(=O)O)C(=O)N[C@@H](CCC(=O)O)C(=O)N[C@@H](CCC(=O)O)C(N)=O)[C@@H](C)CC [PA1] (Palmitoyl-IAAAEEEE-NH2) | 98.8 |  | 
Palmitoyl-IAAAEEEEK(DO3A:Gd)-NH2 (Palmitoyl-IAAAEEEEK(DO3A)-NH2; also: DO3A chelates Gd) [PA5] |  | 8.3 | 6.6
